According to the OligoGym collection:
“And” between values parts separate entries of the source, which are not always exact repeats. Identical values can stand only once. After the bases stand the sugars from the 5' end (letter, count) and the backbone: PS all phosphorothioate, else s phosphorothioate and o phosphodiester by linkage. Methylation of C is not given here. k = constrained ethyl (cEt); d = 2'-deoxy (DNA)

Biological target: MALAT1
Settings: ASO, A431, 0.005 µM

Row | Sequence | target mRNA inhibition
1 | GGATGAAATGCCTCTG (sugars k3 d10 k3, PS) | 24%
2 | GGATGTATATAGTTCA (sugars k3 d10 k3, PS) | 30%
3 | GGCCAGACCAACCCCC (sugars k3 d10 k3, PS) | 3%
4 | GGCCATCATACTGCCA (sugars k3 d10 k3, PS) | -19%
5 | GGCTCGATGGAAAAAT (sugars k3 d10 k3, PS) | 33%
6 | GGGAACACAACTTTTA (sugars k3 d10 k3, PS) | 33%
7 | GGGCTTTACTTTCCAT (sugars k3 d10 k3, PS) | 16%
8 | GGGTTAAGCACTTTTA (sugars k3 d10 k3, PS) | 57%
9 | GGTACTTCAAGCATTC (sugars k3 d10 k3, PS) | 44%
10 | GGTCAATAGTGTAAAA (sugars k3 d10 k3, PS) | 43%
11 | GGTCATCTATTCACAA (sugars k3 d10 k3, PS) | 29%
12 | GGTGAGGCTGACACTT (sugars k3 d10 k3, PS) | 27%
13 | GGTTACCATAAGTAAG (sugars k3 d10 k3, PS) | 37%
14 | GGTTATGCTTATTCCC (sugars k3 d10 k3, PS) | 37%
15 | GTAAAACATTGCCTAC (sugars k3 d10 k3, PS) | 24%
16 | GTAACTACCAGCCATT (sugars k3 d10 k3, PS) | 45%
17 | GTAACTTTAAATTGGT (sugars k3 d10 k3, PS) | 55% and 63%
18 | GTACACTCCTTCTCTA (sugars k3 d10 k3, PS) | 17%
19 | GTACCTGAAAAATCTT (sugars k3 d10 k3, PS) | 3%
20 | GTATAGTTTACCACCT (sugars k3 d10 k3, PS) | 9%
21 | GTATGCTGATAAACTC (sugars k3 d10 k3, PS) | 52%
22 | GTATTTATAGACGGAG (sugars k3 d10 k3, PS) | 0%
23 | GTCCAATGCAAAAACA (sugars k3 d10 k3, PS) | -5%

Row | Sequence | target mRNA inhibition
24 | GTCCTAGCTTCATCAA (sugars k3 d10 k3, PS) | 18%
25 | GTCCTTTACAGAAGTC (sugars k3 d10 k3, PS) | 35%
26 | GTCTCGGGCTGCAGGC (sugars k3 d10 k3, PS) | -6%
27 | GTGAAAACCCACTCTT (sugars k3 d10 k3, PS) | 10%
28 | GTGGCCTTGGCACACT (sugars k3 d10 k3, PS) | -10%
29 | GTTAAACTTATCTGTT (sugars k3 d10 k3, PS) | 41%
30 | GTTAACAGCTGCCTGC (sugars k3 d10 k3, PS) | 7%
31 | GTTAACATGCAAACTT (sugars k3 d10 k3, PS) | 13%
32 | GTTACCTTGAAACCGA (sugars k3 d10 k3, PS) | 47%
33 | GTTACGAAAGTCCTTC (sugars k3 d10 k3, PS) | 45%
34 | GTTATATTAGGTTCTC (sugars k3 d10 k3, PS) | 7%
35 | GTTCAAAGATATTGTG (sugars k3 d10 k3, PS) | 0%
36 | GTTTAAGTCACCTTCA (sugars k3 d10 k3, PS) | 63% and 38%
37 | TAAATACCACCACCTG (sugars k3 d10 k3, PS) | 2%
38 | TAAATCATTGGGAGTT (sugars k3 d10 k3, PS) | 38%
39 | TAAATCCCTTTACACC (sugars k3 d10 k3, PS) | 12%
40 | TAAATTACACCAGTCC (sugars k3 d10 k3, PS) | 44%
41 | TAAATTGATGGGCTTT (sugars k3 d10 k3, PS) | 37%
42 | TAACAGCACATCATGC (sugars k3 d10 k3, PS) | 21%
43 | TAACATGCAATACTGC (sugars k3 d10 k3, PS) | 18%
44 | TAACCTATTGACTATA (sugars k3 d10 k3, PS) | 22%
45 | TAAGAGACATTCAAGC (sugars k3 d10 k3, PS) | 17%
46 | TAAGATGCTAGCTTGG (sugars k3 d10 k3, PS) | 25%

Row | Sequence | target mRNA inhibition
47 | TAAGCAATATCTTAGT (sugars k3 d10 k3, PS) | 16%
48 | TAAGGAGACAGCTTTC (sugars k3 d10 k3, PS) | 16%
49 | TAAGTTTTCAGCAGTA (sugars k3 d10 k3, PS) | -14%
50 | TACAAAACGAATTCAG (sugars k3 d10 k3, PS) | 20%
51 | TACAAACTGCTTACAG (sugars k3 d10 k3, PS) | 39%
52 | TACAATCAAGTCAAGC (sugars k3 d10 k3, PS) | -2%
53 | TACACTCCTTCTCTAA (sugars k3 d10 k3, PS) | -18%
54 | TACAGAAGTCTCGGGC (sugars k3 d10 k3, PS) | 28%
55 | TACCAACCACTCGCTT (sugars k3 d10 k3, PS) | 1%
56 | TACCCCAACTAAACAT (sugars k3 d10 k3, PS) | 18%
57 | TACTATTGTCCCATAA (sugars k3 d10 k3, PS) | 22%
58 | TACTCCAAGCATTGGG (sugars k3 d10 k3, PS) | 0%
59 | TACTCTTGATCTTGAA (sugars k3 d10 k3, PS) | 46%
60 | TACTGGTTTAAGTTGG (sugars k3 d10 k3, PS) | 67% and 77%
61 | TACTTAGCTGTGGTTT (sugars k3 d10 k3, PS) | 23%
62 | TACTTCATTACCCCAA (sugars k3 d10 k3, PS) | 34%
63 | TACTTGCCAACAGAAC (sugars k3 d10 k3, PS) | 19%
64 | TACTTTAAGCCTTCGG (sugars k3 d10 k3, PS) | 29%
65 | TAGAATCTTACTTGAT (sugars k3 d10 k3, PS) | 34%
66 | TAGACGGAGAACAACT (sugars k3 d10 k3, PS) | 29%
67 | TAGAGCTACTTAGCTG (sugars k3 d10 k3, PS) | 18%
68 | TAGATTCCGTAACTTT (sugars k3 d10 k3, PS) | 58%
69 | TAGCAGTAACATCTGA (sugars k3 d10 k3, PS) | 46%

Row | Sequence | target mRNA inhibition
70 | TAGGCCATCATACTGC (sugars k3 d10 k3, PS) | 6%
71 | TAGGTATAGTTTACCA (sugars k3 d10 k3, PS) | 2%
72 | TAGTAACCTATTGACT (sugars k3 d10 k3, PS) | -36%
73 | TAGTAGCTTTTTGATG (sugars k3 d10 k3, PS) | 31%
74 | TAGTCTGAAGAATACC (sugars k3 d10 k3, PS) | 23%
75 | TAGTTAATGTCAGCCC (sugars k3 d10 k3, PS) | 41%
76 | TAGTTGGCATCAAGGC (sugars k3 d10 k3, PS) | 72% and 69%
77 | TATAGACCCCTGACTT (sugars k3 d10 k3, PS) | 42%
78 | TATAGACGGAGAACAA (sugars k3 d10 k3, PS) | 30%
79 | TATAGCATCTGTGGAA (sugars k3 d10 k3, PS) | 20%
80 | TATATAAGGTCAATAG (sugars k3 d10 k3, PS) | 5%
81 | TATATTTAAGGCCTTC (sugars k3 d10 k3, PS) | 45%
82 | TATCAATTCACCAAGG (sugars k3 d10 k3, PS) | 1%
83 | TATCACTCAGCTGGAT (sugars k3 d10 k3, PS) | 34%
84 | TATCTTCACCACGAAC (sugars k3 d10 k3, PS) | 0%
85 | TATGACACTTTCCTTG (sugars k3 d10 k3, PS) | 25%
86 | TATTAAGAGCTGCTAT (sugars k3 d10 k3, PS) | 25%
87 | TATTCCTTTCATAGAG (sugars k3 d10 k3, PS) | 11%
88 | TATTGGAAAACTTAAC (sugars k3 d10 k3, PS) | 26%
89 | TCAACAATCACTACTC (sugars k3 d10 k3, PS) | 16%
90 | TCAACATTTGGCCTAC (sugars k3 d10 k3, PS) | 21%
91 | TCAAGCATTCCTTCGG (sugars k3 d10 k3, PS) | 73% and 67%
92 | TCAAGGCACTGATCAC (sugars k3 d10 k3, PS) | 49%

Row | Sequence | target mRNA inhibition
93 | TCAATCACAAATACGA (sugars k3 d10 k3, PS) | 30%
94 | TCAATTTATAGACCCC (sugars k3 d10 k3, PS) | 47%
95 | TCACAAGGCAAATCGC (sugars k3 d10 k3, PS) | 7%
96 | TCACCAAATCGCACTG (sugars k3 d10 k3, PS) | 20%
97 | TCACCTTCGGTTTAAT (sugars k3 d10 k3, PS) | 28%
98 | TCAGACCTTCTGAACC (sugars k3 d10 k3, PS) | -6%
99 | TCAGGGTTATGCTTAT (sugars k3 d10 k3, PS) | 64% and 59%
100 | TCATTGGGAGTTACTT (sugars k3 d10 k3, PS) | 57%
101 | TCCAAGAACTAGCACC (sugars k3 d10 k3, PS) | -5%
102 | TCCACCCCCACGCCAA (sugars k3 d10 k3, PS) | -9%
103 | TCCACTTGATCCCAAC (sugars k3 d10 k3, PS) | 47% and 56%
104 | TCCAGGACTTGGCAGT (sugars k3 d10 k3, PS) | 23%
105 | TCCAGTCTACAAGTTA (sugars k3 d10 k3, PS) | 31%
106 | TCCCAACCGTAACAGG (sugars k3 d10 k3, PS) | 2%
107 | TCCCCAATCAAGATTT (sugars k3 d10 k3, PS) | 18%
108 | TCCCTGAAGGTGTTCG (sugars k3 d10 k3, PS) | 18%
109 | TCCCTTTACACCTCAG (sugars k3 d10 k3, PS) | 25%
110 | TCCTACCACTCCCAAT (sugars k3 d10 k3, PS) | 30%
111 | TCCTAGCTTCACCACC (sugars k3 d10 k3, PS) | 44%
112 | TCCTGATCTGGTCCAT (sugars k3 d10 k3, PS) | 42%
113 | TCCTGCGACTTGCTCC (sugars k3 d10 k3, PS) | 15%
114 | TCCTTAGTTGGCATCA (sugars k3 d10 k3, PS) | 76% and 68%
